From US10160771B2, “Hepatitis C virus inhibitors and uses thereof in preparation of drugs” (priority 2014, dated 2018)

Columns and labels:
[1] = test system: HCV genotype 1a (HCV-1a) replicon cells; experiment: HCV genotype 1a replicon luciferase assay (EC50); format: cell-based, hepatitis C virus genotype 1a (H77 clone); conditions: 3 days, luciferase (Bright-Glo)
Summary of the method: (§1)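 Stable subgenomic replicon cells (1a: H77 with K1691R, K2040R, S2204I; 1b: Con1 with E1202G, T1280I, K1846T) carrying luciferase and neo were seeded at 8000 cells/well onto compounds (5-fold, 6-point, top 100, 10 or 1 nM; 0.5% DMSO) for 3 days at 37 °C. Bright-Glo luminescence gave EC50 by nonlinear fit.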

HCV-1b replicon cells = experiment: Cell Titer-fluor cell activity assay in HCV-1b replicon cells (CC50); format: cell-based; conditions: 3 days
Summary of the method: (§2)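 Con1 genotype 1b replicon cells (E1202G, T1280I, K1846T adaptive mutations), 8000 cells/well, exposed to 6-point 5-fold dilutions from 100, 10 or 1 nM top concentration in 0.5% DMSO, duplicate wells, 3 days at 37 °C. Viability read by Cell Titer-fluor (Ex 405/Em 515 nm) after 30 min; CC50 from nonlinear fit of inhibition %.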

[2] = test system: HCV genotype 1b (HCV-1b) replicon cells; experiment: HCV genotype 1b replicon luciferase assay (EC50); format: cell-based, hepatitis C virus genotype 1b (Con1 clone); conditions: 3 days, luciferase (Bright-Glo)
Summary of the method: as §1

[3] = Cell Titer-fluor cell activity assay in HCV-1b replicon cells (CC50); format: cell-based
Summary of the method: as §2

in vitro = format: cell-based; conditions: HCV 1a replicon cells, 3 days, Cell Titer-fluor
Procedure: The EC50 and CC50 values of anti-HCV compounds were determined by HCV genotype 1a (HCV-1a) and 1B (HCV-1b) stable transfer replication (replicon) cells. The source of genotype 1a replicon is H77 clones containing K1691R, K2040R and S2204I adaptive mutations. The source of genotype 1b replicon is Con1 clones containing E1202G, T1280I and K1846T adaptive mutations.
HCV Replicon Cell Lines: HCV-1a and HCV-1b Cells
The compound powder was dissolved in 100% DMSO. Then the compound was diluted 5 times with 6 points, and added into the cell plate with Echo liquid handler. Ensure the final concentration of DMSO was 0.5%. Each compound was tested in double holes. Maximum initial concentration was 100, 10 or 1 nM, 5 times dilution, 6 points.
b) Cell Culture (HCV-1a or HCV-1b Replicon Cell):
1) absorbing the culture supernatant of the cell culture and washing the cells with 10 mL PBS.
2) adding preheated pancreatin to the washed cell culture flasks, rotating culture bottle to make the bottom of the culture bottle uniformly covered by pancreatin, then placed into 37° C., 5% CO2 incubator to digest.
3) suspending cells in each T150 culture flask with 10-15 mL culture medium, absorbing 0.1 mL liquid and diluting 2 times by trypan blue solution as counted.
4) diluting cells to 8×10^4/mL with the culture medium, adding the diluted cells into the compound-containing 96-well plate (Greiner, Cat.#655090) (100 μL/well, 8000 cells/well) with automatic liquid separator (Thermo Scientific). Then place into a 37° C., 5% CO2 incubator for 3 days. Cell control well: no compound, only containing 0.5% DMSO.
5) adding chemiluminescent substrate Cell Titer-fluor to the cell well, after incubation for 30 minutes, detecting the signal by chemiluminescence detection system Envison (Ex at 405 nm and read at 515 nm). The effect of the compounds on the activity of HCV replicon cells was analyzed according to the luminescence data, which was used to calculate the CC50 values.
The EC50 or CC50 values were obtained by nonlinear fitting analysis on inhibition percentage (inh %) data with GraphPad Prism software.

Compound | EC50 [1] [nM] | CC50 (HCV-1b replicon cells) [nM] | EC50 [2] [nM] | EC50 ([1]; Hepatitis C virus, 72 h) [nM] | CC50 at 3 days [3] [nM] | EC50 ([2]; Hepatitis C virus, 72 h) [nM] | CC50 (in vitro) [nM]
COC(=O)N[C@H](C(=O)N1CCC[C@H]1c1ncc(-c2ccc(-c3ccc(-c4cnc([C@H]5C6CCC(C6)[C@@H]5C(=O)NC(C)c5cccnc5)[nH]4)cc3)cc2)[nH]1)C(C)C (single isomer, unassigned) [AA_204_C] | 1 to 10 | > 1 | 0.001 to 0.1 | – | – | – | –
COC(=O)N[C@H](C(=O)N1CCC[C@H]1c1ncc(-c2ccc(-c3ccc(-c4cnc([C@H]5C6CCC(C6)[C@@H]5C(=O)NC(c5cccnc5)C(C)C)[nH]4)cc3)cc2)[nH]1)C(C)C (single isomer, unassigned) [AA_233_C] | 10 to 100 | > 1 | 0.101 to 1 | – | – | – | –
COC(=O)N[C@H](C(=O)N1CCC[C@H]1c1ncc(-c2ccc(-c3ccc(-c4cnc(C5C6CCC(C6)[C@@H]5C(=O)N[C@H](C)c5cccnc5)[nH]4)cc3)cc2)[nH]1)[C@@H](C)OC (single isomer, unassigned) [AA_253_C] | 10 to 100 | > 1 | 1 to 10 | – | – | – | –
COC(=O)N[C@H](C(=O)N1CCC[C@H]1c1ncc(-c2ccc(-c3ccc(-c4cnc(C5C6CCC(C6)[C@@H]5C(=O)NC(C)c5cnccn5)[nH]4)cc3)cc2)[nH]1)[C@@H](C)OC (single isomer, unassigned) [AA_281_C] | 1 to 10 | > 1 | 0.101 to 1 | – | – | – | –
COC(=O)NC(C(=O)N1CCCC1c1[nH]c(-c2ccc(-c3ccc(-c4cnc([C@@H]5CCCN5C(=O)[C@@H](NC(=O)OC)C(C)C)[nH]4)cc3)cc2)c2c1CCC2)C1CCOC1 (single isomer, unassigned) [AG_025_B] | 10 to 100 | > 10 | 0.001 to 0.1 | – | – | – | –
COC(=O)NC(C(=O)N1CCCC1c1[nH]c(-c2ccc(-c3ccc(-c4cnc([C@@H]5CCCN5C(=O)[C@@H](NC(=O)OC)C(C)C)[nH]4)cc3)cc2)c2c1CCC2)C1CCOC1 (single isomer, unassigned) [AG_025_C] | 10 to 100 | > 10 | 0.101 to 1 | – | – | – | –
COC(=O)N[C@H](C(=O)N1CCCC1c1ccc(-c2ccc(-c3ccc(-c4cnc([C@@H]5CCCN5C(=O)[C@@H](NC(=O)OC)[C@@H](C)OC)[nH]4)cc3)cc2)[nH]1)[C@@H](C)OC (single isomer, unassigned) [AG_072_B] | 1 to 10 | > 1 | 0.101 to 1 | – | – | – | –
COC(=O)N[C@H](C(=O)N1CCC[C@H]1c1ncc(-c2ccc(-c3ccc(-c4cnc(C5C6CCC(C6)[C@@H]5C(=O)N[C@H](c5cccnc5)C(C)C)[nH]4)cc3)cc2)[nH]1)[C@@H](C)OC (stereo partly drawn) [AA_271_A] | 0.101 to 1 | > 1 | 0.001 to 0.1 | – | – | – | –
COC(=O)N[C@H](C(=O)N1CCC[C@H]1c1ncc(-c2ccc(-c3ccc(-c4cnc(C5C6CCC(C6)[C@H]5C(=O)N[C@H](c5cccnc5)C(C)C)[nH]4)cc3)cc2)[nH]1)[C@@H](C)OC (stereo partly drawn) [AA_271_B] | 10 to 100 | > 1 | 0.101 to 1 | – | – | – | –
COC(=O)NC(C(=O)N1CCC[C@H]1c1ncc(-c2ccc(-c3ccc(-c4[nH]c(C5CCCN5C(=O)[C@@H](NC(=O)OC)C(C)C)c5c4CCCC5)cc3)cc2)[nH]1)C1CCOC1 (stereo partly drawn) [AG_046] | – | – | – | 10 to 100 | > 100 | 0.101 to 1 | > 100
COC(=O)NC(C(=O)N1CCC[C@H]1c1ncc(-c2ccc(-c3ccc(-c4[nH]c(C5CCCN5C(=O)[C@@H](NC(=O)OC)C(C)C)c5c4CCCC5)cc3)cc2)[nH]1)C1CCOC(C)C1 (stereo partly drawn) [AG_047] | – | – | – | 10 to 100 | > 100 | 0.101 to 1 | > 100
COC(=O)N[C@H](C(=O)N1CCCC1c1ncc(-c2ccc3cc(-c4ccc(-c5[nH]c(C6CCCN6C(=O)[C@@H](NC(=O)OC)C(C)C)c6c5CCC6)cc4)ccc3c2)[nH]1)C(C)C (stereo partly drawn) [AG_048] | – | – | – | 10 to 100 | > 100 | 0.101 to 1 | > 100
COC(=O)NC(C(=O)N1CCC[C@H]1c1ncc(-c2ccc(-c3ccc(-c4[nH]c(C5CCCN5C(=O)[C@@H](NC(=O)OC)C(C)C)c5c4CCC5)cc3)cc2)[nH]1)C1CCOC1 (stereo partly drawn) [AG_049] | – | – | – | 10 to 100 | > 100 | 0.001 to 0.1 | > 100
COC(=O)NC(C(=O)N1CCC[C@H]1c1ncc(-c2ccc(-c3ccc(-c4[nH]c(C5CCCN5C(=O)[C@@H](NC(=O)OC)C(C)C)c5c4CCC5)cc3)cc2)[nH]1)C1CCOC(C)C1 (stereo partly drawn) [AG_050] | – | – | – | 1 to 10 | > 100 | 0.001 to 0.1 | > 100
COC(=O)NC(C(=O)N1CCC[C@H]1c1ncc(-c2ccc3cc(-c4ccc(-c5[nH]c(C6CCCN6C(=O)[C@@H](NC(=O)OC)C(C)C)c6c5CCC6)cc4)ccc3c2)[nH]1)C1CCOCC1 (stereo partly drawn) [AG_051] | – | – | – | 1 to 10 | > 100 | 0.101 to 1 | > 100
COC(=O)N[C@H](C(=O)N1CCC[C@H]1c1ncc(-c2ccc(-c3ccc(-c4ccc(C5CCCN5C(=O)[C@@H](NC(=O)OC)C(C)C)[nH]4)cc3)cc2)[nH]1)c1ccccc1 (stereo partly drawn) [AG_052] | – | – | – | 1 to 10 | > 100 | 0.001 to 0.1 | > 100
COC(=O)N[C@H](C(=O)N1CCCC1c1ccc(-c2ccc(-c3ccc(-c4cnc([C@@H]5CCCN5C(=O)[C@@H](NC(=O)OC)C5CCOC(C)C5)[nH]4)cc3)cc2)[nH]1)C(C)C (stereo partly drawn) [AG_053] | – | – | – | 1 to 10 | > 100 | 0.101 to 1 | > 100
COC(=O)N[C@H](C(=O)N1CCCC1c1ccc(-c2ccc(-c3ccc(-c4cnc(C5CCCN5C(=O)[C@@H](NC(=O)OCCF)C(C)C)[nH]4)cc3)cc2)[nH]1)C(C)C (stereo partly drawn) [AG_062] | 10 to 100 | > 10 | 0.101 to 1 | – | – | – | –
COC(=O)N[C@H](C(=O)N1CCC[C@H]1c1ncc(-c2ccc(-c3ccc(-c4[nH]c([C@@H]5CCCN5C(=O)[C@@H](NC(=O)OC)[C@@H](C)OC)c5c4COC5)cc3)cc2)[nH]1)[C@@H](C)OC [AG_080_A] | 0.001 to 0.1 | > 5 | 0.001 to 0.1 | – | – | – | –
COC(=O)N[C@H](C(=O)N1CC2(C[C@H]1c1ncc(-c3ccc(-c4ccc(-c5[nH]c([C@@H]6CCCN6C(=O)[C@@H](NC(=O)OC)[C@@H](C)OC)c6c5CCC6)cc4)cc3)[nH]1)OCCO2)[C@@H](C)OC [AG_089] | 1 to 10 | > 1 | 0.001 to 0.1 | – | – | – | –
COC(=O)N[C@H](C(=O)N1CCC[C@H]1c1[nH]c(-c2ccc(-c3ccc(-c4cnc([C@@H]5CCCCN5C(=O)[C@@H](NC(=O)OC)[C@@H](C)OC)[nH]4)cc3)cc2)c2c1COC2)C(C)OC (stereo partly drawn) [AG_124] | – | – | – | 0.101 to 1 | > 1 | 0.001 to 0.1 | > 100
